In paper PMC10980815, “Cell surface patching via CXCR4-targeted nanothreads for cancer metastasis inhibition” (Nature Communications, 2024):
“And” between values parts separate entries of the source, which are not always exact repeats. Identical values can stand only once. Ends that are not written are not given here.

Key:
[1] = Hydrodynamic size / size distribution by dynamic light scattering; type: physicochemical; conditions: Malvern Zetasizer Nano ZS90, mean ± SD
Protocol: (§1) The average molecular weight (Mw) and polydispersity (PDI) of the HPMA copolymer conjugates were determined by gel permeation chromatography (GPC) on an AKTA purifier equipment with a Superose 6 10/300 GL analytical column (GE Healthcare, USA) and a differential refraction detector (KNAUER, 2300, Germany). Hydrodynamic sizes and zeta potentials were determined using a Malvern Zetasizer Nano ZS90 equipment (Malvern Instruments Ltd, Malvern, UK). The contents of BS, CM1, and CM2 were determined using a bicinchoninic acid (BCA) protein assay. The PS concentration was determined by ultraviolet-visible (UV-Vis) spectroscopy at its characteristic absorbance peak (660 nm).
To investigate the coiled-coil assembly, varying CM1-to-CM2 ratios (3:1, 1:1, and 1:3) of P-BS-CM1 and P-CM2 were mixed in 10 mM PBS (pH 7.4) at 25 °C for 10 min. The total polymer concentration was kept constant at 10 mg/mL. Circular dichroism spectra, size distribution, and rheological properties of P-BS-CM1, P-CM2, and their mixture were measured. The surface morphology of P-BS-CM1 and the mixture (P-BS-CM1 + P-CM2) was observed using scanning electron microscopy. Additionally, for the FRET assay, CM1-to-CM2 equimolar of P-BS-CM1-Cy5 and P-CM2-Cy3 were mixed in 10 mM PBS (pH 7.4) at 25 °C for 10 min. Fluorescent spectra of P-BS-CM1-Cy5, P-CM2-Cy3, and the mixture (P-BS-CM1-Cy5+P-CM2-Cy3) were recorded at the Cy3 excitation wavelength of 550 nm.

ζ-potential (Zetasizer) = type: physicochemical; conditions: Malvern Zetasizer Nano ZS90; mean ± SD
Protocol: as §1

4T1 cells [2] = assay: Photosensitizer cell binding (flow cytometry, confocal); type: cell-based, murine
Protocol: For cell binding investigation, 4T1 cells (4 × 10^5 cells/well) were seeded onto 12-well plates (NEST Biotechnology), and treated with i) P-PS for 1 h, ii) P-BS-PS for 1 h, or iii) P-BS-CM1 for 1 h followed by P-PS-CM2 for another 1 h (50 μg/mL BS equivalence, CM1:CM2 1:1 mol%, 25 μg/mL PS equivalence), respectively. Subsequently, cells were washed three times with PBS and observed using flow cytometry and confocal microscopy.

4T1 cells [3] = assay: Calreticulin exposure in vitro (flow cytometry); type: cell-based, murine
Protocol: (§2) For the investigation of CXCR4 downstream PI3K signals, cells were fixed, permeabilized, and stained with anti-PI 3 kinase p85 alpha recombinant rabbit monoclonal antibody (1:500 dilution, 4 °C, 1 h) and goat anti-rabbit IgG H&L Alexa Fluor® 647 (1:1000 dilution, 4 °C, 30 min), followed by flow cytometry analysis. For the investigation of ICD hallmarks, cells were stained with anti-calreticulin recombinant rabbit monoclonal antibody (1:500 dilution, 4 °C, 1 h) and goat anti-rabbit IgG H&L Alexa Fluor® 647 (1:1000 dilution, 4 °C, 40 min), followed by flow cytometry analysis. ATP levels in the cell culture supernatant were measured following the protocol of luciferase-based ATP assay kit.

4T1 cells [4] = assay: Extracellular ATP release in vitro; type: cell-based, murine
Protocol: as §2

[5] = system: orthotopic 4T1 breast tumors; assay: PDT efficacy in vivo: primary tumor growth, survival, lung metastasis; design: species or system female BALB/c mice
Protocol: (§3) 4T1 cells (1 × 10^6 cells) were injected into the third mammary fat pad of female BALB/c mice (6–8-week). When tumor volumes reached nearly […] on day 7 after tumor inoculation, mice were randomly divided into 8 groups (n = 8 per group). For four groups without laser irradiation (−), mice were intravenously injected with the following samples: (1) saline on day 7, 14, 21, and 28, (2) P-PS on day 7, 14, 21, and 28, (3) P-BS-PS on day 7, 14, 21, and 28, or (4) P-BS-CM1 on day 7, 14, 21, and 28, followed by P-PS-CM2 on day 8, 15, 22, and 29 (5 mg/kg BS equivalence, CM1:CM2 1:1 mol%, 2.5 mg/kg PS equivalence), respectively. For four groups with laser irradiation (+), mice were treated with the same regimens and irradiated at 650 nm laser (580 mW/cm^2, 5 min) on day 9, 16, 23 and 30. Tumor volumes and mice survivals were recorded every other day. For the investigation of immune response and lung metastasis, 4T1 tumor-bearing female BALB/c mice (6–8-week, tumor volume~100 mm^3) were randomly divided into 8 groups (n = 5 per group) and given three rounds of above treatments. On day 28, lungs and tumors were harvested. lungs were fixed with Bouin’s solution. The pulmonary metastatic nodules were counted and analyzed by hematoxylin-eosin staining. Single-cell suspensions of tumor tissues were stained with anti-CD45-PerCP/Cy5.5 (1:300 dilution) and anti-calreticulin recombinant rabbit monoclonal antibody (1:500 dilution) at 4 °C for 1 h, and then stained with goat anti-rabbit IgG H&L Alexa Fluor® 647 (1:1000 dilution, 4 °C, 45 min), followed by flow cytometry analysis. ATP and HMGB1 concentrations in the supernatant of cell suspension were measured using a luciferase-based ATP assay kit and a mouse HMGB1 ELISA kit, respectively. Single-cell suspensions of tumors were stained with FITC anti-mouse CD3 antibody (1:300 dilution), PerCP/Cyanine5.5 anti-mouse CD4 antibody (1:300 dilution), anti-CD8α-APC (1:300 dilution), and anti-Foxp3-PE (1:300 dilution) for flow cytometry analysis of T cell subtypes (CD8^+ T cells, CD4^+ effector T cells, and Foxp3^+ regulatory T cells), and stained with PE anti-mouse/human CD11b antibody (1:300 dilution) and FITC anti-mouse Ly-6G/Ly-6C (Gr-1) antibody (1:300 dilution) for flow cytometry analysis of MDSCs (CD11b^+Gr1^+). Cytotoxic T cells in tumor tissues were investigated with immunofluorescent staining of IFN-γ and flow cytometry analysis using anti-IFN-γ-PE (1:300 dilution). For CD8-depletion assay, 4T1 tumor-bearing female BALB/c mice (6–8-week, tumor volume~100 mm^3) were randomly divided into 3 groups (n = 8 per group). Mice were intravenously given four doses of P-BS-CM1 on day 7, 14, 21 and 28, combined with P-PS-CM2 on day 8, 15, 22 and 29 (5 mg/kg BS equivalence, CM1:CM2 1:1 mol%, 2.5 mg/kg PS equivalence) in the presence or absence of InvivoMab anti-mouse CD8α (100 μg/mice). Mice were irradiated at 650 nm laser (580 mW/cm^2, 5 min) on day 9, 16, 23 and 30. Tumor volumes and mice survivals were recorded every other day.

[6] = system: orthotopic 4T1 breast tumors; assay: Intratumoral ICD hallmarks (CRT, ATP, HMGB1); type: in vivo, female BALB/c mice; conditions: individual mice
Protocol: as §3

[7] = system: orthotopic 4T1 breast tumors; assay: IFN-γ+CD8+ T lymphocytes in primary tumors; type: in vivo, female BALB/c mice; conditions: groups marked (+) (laser irradiation); individual mice, n = 5
Protocol: 4T1 cells (1 × 10^6 cells) were injected into the third mammary fat pad of female BALB/c mice (6–8-week). When tumor volumes reached nearly […] on day 7 after tumor inoculation, mice were randomly divided into 8 groups (n = 8 per group). For four groups without laser irradiation (−), mice were intravenously injected with the following samples: (1) saline on day 7, 14, 21, and 28, (2) P-PS on day 7, 14, 21, and 28, (3) P-BS-PS on day 7, 14, 21, and 28, or (4) P-BS-CM1 on day 7, 14, 21, and 28, followed by P-PS-CM2 on day 8, 15, 22, and 29 (5 mg/kg BS equivalence, CM1:CM2 1:1 mol%, 2.5 mg/kg PS equivalence), respectively. For four groups with laser irradiation (+), mice were treated with the same regimens and irradiated at 650 nm laser (580 mW/cm^2, 5 min) on day 9, 16, 23 and 30. Tumor volumes and mice survivals were recorded every other day. For the investigation of immune response and lung metastasis, 4T1 tumor-bearing female BALB/c mice (6–8-week, tumor volume~100 mm^3) were randomly divided into 8 groups (n = 5 per group) and given three rounds of above treatments. […] The pulmonary metastatic nodules were counted and analyzed by hematoxylin-eosin staining. […] ATP and HMGB1 concentrations in the supernatant of cell suspension were measured using a luciferase-based ATP assay kit and a mouse HMGB1 ELISA kit, respectively. […] Tumor volumes and mice survivals were recorded every other day.

[8] = groups marked (+) (laser irradiation), n = 5
[9] = groups marked (-) (no laser irradiation), n = 5

In the case of “P-BS-PS: BS-multivalently-modified polymer-PS conjugate (LGASWHRPDKCCLGYQKRPLPA; not fully specified (residues 11, 12); cysteine pairing not given here; also: chlorin e6 photosensitizer on polymer)”, the Size [1] is reported as 22.4±1.4 nm, the ζ-potential (ζ-potential (Zetasizer)) is reported as -18.24±2.31 mV and the “Photosensitizer cell binding (fluorescence, Fig. 7a)” value (shortened to “Photosensitizer cell binding”) (4T1 cells [2]; replicate 1) is reported as 507603. For the same substance, the “Photosensitizer cell binding” value (4T1 cells [2]; replicate 2) was 505554, the “Photosensitizer cell binding” value (4T1 cells [2]; replicate 3) was 480665 and the “CRT positive cells (%)” value (4T1 cells [3]; replicate 1) was 20.53%. The “CRT positive cells (%)” value (4T1 cells [3]; replicate 2) was 18.21%, the “CRT positive cells (%)” value (4T1 cells [3]; replicate 3) was 17.1% and the “Extracellular ATP” value (4T1 cells [4]; replicate 1) was 52.31 nM. For the same substance, the “Extracellular ATP” value (4T1 cells [4]; replicate 2) was 40.65 nM, the “Extracellular ATP” value (4T1 cells [4]; replicate 3) was 40.42 nM and the “Number of lung metastatic nodules” value ([5]; (+) with laser, mouse 1 of 5) was 11. For the same substance, the “Number of lung metastatic nodules” value ([5]; (+) with laser, mouse 2 of 5) was 13, the “Number of lung metastatic nodules” value ([5]; (+) with laser, mouse 3 of 5) was 6 and the “Number of lung metastatic nodules” value ([5]; (+) with laser, mouse 4 of 5) was 9. The “Number of lung metastatic nodules” value ([5]; (+) with laser, mouse 5 of 5) was 7, the “Number of lung metastatic nodules” value ([5]; (-) no laser, mouse 1 of 5) was 24 and the “Number of lung metastatic nodules” value ([5]; (-) no laser, mouse 2 of 5) was 27. For the same substance, the “Number of lung metastatic nodules” value ([5]; (-) no laser, mouse 3 of 5) was 22, the “Number of lung metastatic nodules” value ([5]; (-) no laser, mouse 4 of 5) was 23 and the “Number of lung metastatic nodules” value ([5]; (-) no laser, mouse 5 of 5) was 21. The “ATP per tumor weight” value [6, 8] was 345.1 µmol/g and 303.2 µmol/g and 231.5 µmol/g and 287.7 µmol/g and 298.1 µmol/g, the “CRT expression in tumor (MFI)” value [6, 8] was 34335.1 MFI and 38552.2 MFI and 29253.6 MFI and 35944.5 MFI and 36607.6 MFI and the “HMGB1 per tumor weight” value [6, 8] was 80.13 ng/g and 70.54 ng/g and 88.61 ng/g and 92.56 ng/g and 89.1 ng/g. The “ATP per tumor weight” value [6, 9] was 191.5 µmol/g and 151.37 µmol/g and 120.13 µmol/g and 106.4 µmol/g and 205.73 µmol/g, the “HMGB1 per tumor weight” value [6, 9] was 19.76 ng/g and 15.34 ng/g and 14.57 ng/g and 18.95 ng/g and 19.22 ng/g and the “CRT expression in tumor (MFI)” value ([6]; groups marked (-) (no laser irradiation), n = 5, one line each) was 27343 MFI and 22321 MFI and 19321 MFI and 23431 MFI and 20197 MFI. The “IFN-γ+ cells (%) in tumor-infiltrating CD8+ cells” value [7] was 13.27% and 14.75% and 15.74% and 11.82% and 15.65%.
